Laboratory results from ChEMBL document CHEMBL3045041, “Synthesis of novel aryl(4-substituted pyridin-3-yl)methyl carbamates and their herbicidal activity” (J Pestic Sci, 2012).

How the values were obtained:
[1] = system: Schoenoplectiella juncoides; assay: Herbicidal activity against Schoenoplectiella juncoides under greenhouse condition compound treated at 0.5 leaf stage measured after 14 to 20 days; format: functional
[2] = system: Oryza sativa; assay: Phytotoxicity against Oryza sativa cv. Kinuhikari (rice) planted at 3 cm depth measured after 20 to 25 days; format: organism-based; settings: in vivo
[3] = system: Echinochloa oryzicola; assay: Herbicidal activity against Echinochloa oryzicola under greenhouse condition compound treated at emergence stage measured after 14 to 20 days; format: functional
[4] = system: Echinochloa oryzicola; assay: Herbicidal activity against Echinochloa oryzicola under greenhouse condition compound treated at 2.5 leaf stage measured after 14 to 20 days; format: functional

`CN(C)C(=O)OC(c1cnccc1C(F)(F)F)c1ccnc2ccccc12` (centres undefined) gave an ED80 [1] of 500 gAi/ha, an ED20 [2] of 2000 gAi/ha and an ED80 [3] of 125 gAi/ha.

For `CN(C)C(=O)OC(c1cnccc1C(F)(F)F)c1ccc2c3c(cccc13)CC2` (centres undefined), the ED80 [1] was over 1000 gAi/ha, the ED80 [4] was over 500 gAi/ha and the ED20 [2] was over 2000 gAi/ha. It also gave an ED80 [3] of 500 gAi/ha.

For `CN(C)C(=O)OC(c1cnccc1C(F)(F)F)c1c(Cl)ccc2c1OCO2` (centres undefined), the ED80 [1] was 500 gAi/ha, the ED80 [4] was 500 gAi/ha and the ED20 [2] was over 2000 gAi/ha. It also gave an ED80 [3] of 63 gAi/ha.

Work on `CN(C)C(=O)OC(c1cnccc1C(F)(F)F)c1cccc2c1OCO2` (centres undefined) yielded an ED80 [1] of 250 gAi/ha, an ED20 [2] of 500 gAi/ha and an ED80 [3] of 63 gAi/ha.
